Experimental data as given in the NIST ThermoML archive (doi:10.1021/je201102x).
± gives the expanded uncertainty stated by the source.

Assay: xn = mol fraction of the nth substance listed
Settings: 101 kPa, Liquid, Vibrating tube method

CCC(C)(C)O [2-methylbutan-2-ol] + CCC(=O)O
mass density [kg/m3]
Settings	283.15 K	293.15 K	303.15 K	313.15 K	323.15 K	333.15 K
x2 = 0.0822	819.84 ± 0.14	815.21 ± 0.14	810.53 ± 0.14	801.01 ± 0.14	791.2 ± 0.15	781.09 ± 0.15
x2 = 0.16	830.58 ± 0.13	825.94 ± 0.14	821.26 ± 0.14	811.74 ± 0.14	801.99 ± 0.14	791.96 ± 0.15
x2 = 0.2419	842.49 ± 0.13	837.85 ± 0.13	833.18 ± 0.13	823.69 ± 0.14	814 ± 0.14	804.06 ± 0.14
x2 = 0.3189	854.39 ± 0.13	849.75 ± 0.13	845.08 ± 0.13	835.62 ± 0.13	825.96 ± 0.14	816.07 ± 0.14
x2 = 0.4024	868.02 ± 0.12	863.37 ± 0.13	858.68 ± 0.13	849.19 ± 0.13	839.53 ± 0.13	829.68 ± 0.14
x2 = 0.4806	881.53 ± 0.12	876.85 ± 0.12	872.13 ± 0.12	862.6 ± 0.13	852.91 ± 0.13	843.03 ± 0.13
x2 = 0.5588	895.71 ± 0.12	890.97 ± 0.12	886.21 ± 0.12	876.6 ± 0.12	866.84 ± 0.13	856.93 ± 0.13
x2 = 0.6429	911.85 ± 0.11	907.05 ± 0.12	902.23 ± 0.12	892.5 ± 0.12	882.64 ± 0.12	872.64 ± 0.13
x2 = 0.7218	927.93 ± 0.11	923.03 ± 0.11	918.13 ± 0.11	908.25 ± 0.12	898.28 ± 0.12	888.18 ± 0.12
x2 = 0.785	941.5 ± 0.11	936.52 ± 0.11	931.53 ± 0.11	921.51 ± 0.11	911.41 ± 0.12	901.2 ± 0.12
x2 = 0.8812	963.57 ± 0.1	958.43 ± 0.1	953.3 ± 0.11	942.98 ± 0.11	932.62 ± 0.11	922.2 ± 0.11
x2 = 0.9561	982.1 ± 0.1	976.8 ± 0.1	971.51 ± 0.1	960.92 ± 0.11	950.3 ± 0.11	939.64 ± 0.11

CC(=O)O [acetic acid] + CCC(C)O
mass density [kg/m3]
Settings	293.15 K	298.15 K	303.15 K	313.15 K	323.15 K	333.15 K
x1 = 0.0822	819.04 ± 0.22	814.82 ± 0.22	810.53 ± 0.22	801.69 ± 0.22	792.5 ± 0.22	782.93 ± 0.22
x1 = 0.1628	832.16 ± 0.2	827.83 ± 0.2	823.44 ± 0.2	814.46 ± 0.21	805.17 ± 0.21	795.54 ± 0.21
x1 = 0.2395	845.65 ± 0.19	841.23 ± 0.19	836.76 ± 0.19	827.62 ± 0.19	818.22 ± 0.19	808.51 ± 0.19
x1 = 0.321	861.12 ± 0.17	856.58 ± 0.17	852 ± 0.17	842.7 ± 0.18	833.16 ± 0.18	823.36 ± 0.18
x1 = 0.3979	876.8 ± 0.16	872.17 ± 0.16	867.49 ± 0.16	858.02 ± 0.16	848.33 ± 0.16	838.39 ± 0.16
x1 = 0.4759	893.89 ± 0.14	889.16 ± 0.14	884.37 ± 0.14	874.69 ± 0.15	864.83 ± 0.15	854.77 ± 0.15
x1 = 0.5611	914 ± 0.13	909.12 ± 0.13	904.22 ± 0.13	894.32 ± 0.13	884.26 ± 0.13	874 ± 0.14
x1 = 0.6399	934.04 ± 0.11	929.04 ± 0.11	924.01 ± 0.12	913.87 ± 0.12	903.62 ± 0.12	893.19 ± 0.12
x1 = 0.7197	955.97 ± 0.1	950.84 ± 0.1	945.68 ± 0.1	935.3 ± 0.11	924.81 ± 0.11	914.19 ± 0.11
x1 = 0.8003	980.06 ± 0.09	974.78 ± 0.09	969.49 ± 0.09	958.84 ± 0.1	948.1 ± 0.1	937.26 ± 0.1
x1 = 0.8796	1005.8 ± 0.09	1000.35 ± 0.09	994.91 ± 0.09	983.99 ± 0.09	973.01 ± 0.09	961.97 ± 0.09
x1 = 0.9365	1025.67 ± 0.09	1020.12 ± 0.09	1014.58 ± 0.09	1003.46 ± 0.09	992.31 ± 0.09	981.11 ± 0.09
x1 = 0.9586	1033.71 ± 0.09	1028.12 ± 0.09	1022.54 ± 0.09	1011.36 ± 0.09	1000.14 ± 0.09	988.87 ± 0.09
